We go through 3 compounds from ChEMBL document CHEMBL3425507, “Separation and peroxisome proliferator-activated receptor-γ agonist activity evaluation of synthetic racemic bavachinin enantiomers” (Bioorg Med Chem Lett, 2015).

A short description of series [1]: Retention time of the compound by supercritical fluid chromatography. In kind it is ADME.
Series [2] addresses T1, Peroxisome proliferator-activated receptor gamma (Homo sapiens, UniProt P37231).
T1 sequence (P37231 whole entry): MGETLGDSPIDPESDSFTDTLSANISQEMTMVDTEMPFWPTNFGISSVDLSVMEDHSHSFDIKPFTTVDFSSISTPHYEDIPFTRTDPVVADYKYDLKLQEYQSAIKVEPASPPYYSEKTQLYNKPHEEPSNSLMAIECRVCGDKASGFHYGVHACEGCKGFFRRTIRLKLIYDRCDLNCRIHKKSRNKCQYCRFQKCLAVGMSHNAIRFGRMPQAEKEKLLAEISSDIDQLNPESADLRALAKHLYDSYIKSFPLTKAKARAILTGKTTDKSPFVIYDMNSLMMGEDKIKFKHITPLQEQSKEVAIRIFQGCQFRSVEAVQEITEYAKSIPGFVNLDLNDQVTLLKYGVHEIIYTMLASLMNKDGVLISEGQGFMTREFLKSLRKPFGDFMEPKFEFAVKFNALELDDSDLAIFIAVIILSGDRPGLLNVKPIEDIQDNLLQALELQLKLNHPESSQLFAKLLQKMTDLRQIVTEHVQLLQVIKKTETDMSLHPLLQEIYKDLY
The series can be described thus: Agonist activity at PPARgamma ligand binding domain (unknown origin) using fluormone Pan-PPAR green tracer by TR-FRET assay based competitive ligand binding method. (TR-FRET usually uses a lanthanide donor and a delayed reading to cut background.)

As to `COc1cc2c(cc1CC=C(C)C)C(=O)C[C@H](c1ccc(O)cc1)O2`, the Retention_time in series [1] was determined as 4.99 min. Moreover, in series [2], the IC50 is 471 nM and the Ki turned out to be 169 nM.

For the compound `COc1cc2c(cc1CC=C(C)C)C(=O)C[C@@H](c1ccc(O)cc1)O2` [BAVACHININ A], the Retention_time in series [1] turned out to be 4.4 min. In series [2], this compound had an IC50 of 617 nM and a Ki of 221 nM.

In series [2], `COc1cc2oc(-c3ccc(O)cc3)cc(=O)c2cc1CC=C(C)C` [BAVACHININ] returned an IC50 of 489 nM and a Ki of 176 nM.

One may read the IC50 as the point on the concentration scale where inhibition reaches its midpoint. Read a low IC50 as inhibition by little substance. As a reminder, the Ki is a measure of affinity in units of concentration, obtained from inhibition or displacement. A low value points to a stronger hold on the target.
